Test results: PubChem BioAssay (NCI)
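Five compound concentrations were applied to cells in 96-well plates for 48 hours; endpoints were derived by simple linear interpolation of the resulting dose-response curve. Abbreviation: GI50, concentration required for 50% inhibition of growth. TGI is the concentration that stops growth completely.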

Experiments:
Assay in all cases: growth of human tumour cells (NCI), 48 h
[1] = test system: MDA-MB-435
[2] = test system: SNB-75 CNS
[3] = test system: OVCAR-5 ovarian
[4] = test system: SR leukemia
[5] = test system: SK-MEL-28 melanoma
[6] = test system: SW-620 colon
[7] = test system: HOP-62 NSCLC
[8] = test system: UACC-257 melanoma
[9] = test system: SK-MEL-2 melanoma
[10] = test system: 786-0 renal
[11] = test system: UO-31 renal
[12] = test system: K-562 leukemia
[13] = test system: HCT-15 colon
[14] = test system: EKVX NSCLC
[15] = test system: TK-10 renal
[16] = test system: MCF7 breast
[17] = test system: A498 renal
[18] = test system: BT-549 breast
[19] = test system: NCI-H460 lung
[20] = test system: SNB-19 CNS
[21] = test system: HCC-2998 colon
[22] = test system: T-47D breast
[23] = test system: MOLT-4 leukemia
[24] = test system: PC-3 prostate
[25] = test system: CCRF-CEM leukemia
[26] = test system: DU-145 prostate
[27] = test system: MALME-3M melanoma
[28] = test system: OVCAR-8 ovarian
[29] = test system: MDA-MB-231 breast
[30] = test system: SK-OV-3 ovarian
[31] = test system: OVCAR-4 ovarian
[32] = test system: NCI-H23 lung
[33] = test system: KM12 colon
[34] = test system: RXF 393 renal
[35] = test system: SF-268 CNS
[36] = test system: NCI/ADR-RES ovarian
[37] = test system: HS 578T breast
[38] = test system: COLO 205 colon
[39] = test system: SF-295 CNS
[40] = test system: A549 NSCLC
[41] = test system: OVCAR-3 ovarian
[42] = test system: HL-60(TB) leukemia
[43] = test system: SF-539 CNS
[44] = test system: IGROV1 ovarian
[45] = test system: LOX IMVI melanoma
[46] = test system: U251 CNS
[47] = test system: SK-MEL-5 melanoma
[48] = test system: SN12C renal
[49] = test system: HCT-116 colon
[50] = test system: ACHN renal
[51] = test system: HOP-92 NSCLC
[52] = test system: NCI-H226 lung
[53] = test system: M14 melanoma
[54] = test system: NCI-H522 lung
[55] = test system: HT29 colon
[56] = test system: RPMI-8226 leukemia
[57] = test system: UACC-62 melanoma

SMILES: CC1=C[C@H]2O[C@@H]3C[C@H]4OC(=O)/C=C\C=C\[C@H]([C@@H](C)O)OCC/C(C)=C/C(=O)OC[C@@]2(CC1)[C@]4(C)[C@]31CO1
- GI50 [1]: 7.94 nM
- TGI [1]: 31.9 nM
- GI50 [2]: 8.15 nM
- TGI [2]: 24.7 nM
- GI50 [3]: 12 nM
- TGI [3]: 67.9 nM
- GI50 [4]: 4.05 nM
- TGI [4]: 11.1 nM
- GI50 [5]: 5.3 nM
- TGI [5]: 22.5 nM
- GI50 [6]: 8.1 nM
- TGI [6]: 49.1 nM
- GI50 [7]: 6.42 nM
- TGI [7]: 26.3 nM
- GI50 [8]: 11.2 nM
- TGI [8]: 37.9 nM
- GI50 [9]: 12.4 nM
- TGI [9]: 42.9 nM
- GI50 [10]: 3.93 nM
- TGI [10]: 24.9 nM
- GI50 [11]: 5.43 nM
- TGI [11]: 33.5 nM
- GI50 [12]: 2.92 nM
- TGI [12]: 14.3 µM
- GI50 [13]: 3.71 nM
- TGI [13]: 23.6 nM
- GI50 [14]: 7.64 nM
- TGI [14]: 52.4 nM
- GI50 [15]: 9.23 nM
- TGI [15]: 39.5 nM
- GI50 [16]: 2.76 nM
- TGI [16]: 18.9 nM
- GI50 [17]: 5.33 nM
- TGI [17]: 14.1 nM
- GI50 [18]: 3.87 nM
- TGI [18]: 10.8 nM
- GI50 [19]: 2.46 nM
- TGI [19]: 6.92 nM
- GI50 [20]: 4.14 nM
- TGI [20]: 26.1 nM
- GI50 [21]: 3.47 nM
- TGI [21]: 12.1 nM
- GI50 [22]: 8.31 nM
- TGI [22]: 28.8 nM
- GI50 [23]: 2.38 nM
- TGI [23]: 469 nM
- GI50 [24]: 6.63 nM
- TGI [24]: 116 nM
- GI50 [25]: 4.25 nM
- TGI [25]: 14.3 µM
- GI50 [26]: 4.11 nM
- TGI [26]: 13.9 nM
- GI50 [27]: 3.23 nM
- TGI [27]: 11.2 nM
- GI50 [28]: 9.15 nM
- TGI [28]: 45.3 nM
- GI50 [29]: 17.4 nM
- TGI [29]: 77.5 nM
- GI50 [30]: 6.89 nM
- TGI [30]: 27.9 nM
- GI50 [31]: 7.24 nM
- TGI [31]: 69.9 nM
- GI50 [32]: 6.14 nM
- TGI [32]: 27 nM
- GI50 [33]: 6.25 nM
- TGI [33]: 132 nM
- GI50 [34]: 4.37 nM
- TGI [34]: 18.6 nM
- GI50 [35]: 10.6 nM
- TGI [35]: 41.1 nM
- GI50 [36]: 10.8 nM
- TGI [36]: 98.9 nM
- GI50 [37]: 7.34 nM
- TGI [37]: 29.8 nM
- GI50 [38]: 7.33 nM
- TGI [38]: 18.9 nM
- GI50 [39]: 8.91 nM
- TGI [39]: 34.9 nM
- GI50 [40]: 5.26 nM
- TGI [40]: 32.9 nM
- GI50 [41]: 4.4 nM
- TGI [41]: 34 nM
- GI50 [42]: 2.39 nM
- TGI [42]: 6.84 nM
- GI50 [43]: 3.65 nM
- TGI [43]: 11.5 nM
- GI50 [44]: 4.4 nM
- TGI [44]: 41.7 nM
- GI50 [45]: 2.77 nM
- TGI [45]: 10.6 nM
- GI50 [46]: 4.43 nM
- TGI [46]: 26.4 nM
- GI50 [47]: 2.58 nM
- TGI [47]: 7.77 nM
- GI50 [48]: 12 nM
- TGI [48]: 74.2 nM
- GI50 [49]: 2.37 nM
- TGI [49]: 8.21 nM
- GI50 [50]: 8.52 nM
- TGI [50]: 65 nM
- GI50 [51]: 11.6 nM
- TGI [51]: 84.3 nM
- GI50 [52]: 3.23 nM
- TGI [52]: 17.7 nM
- GI50 [53]: 2.78 nM
- TGI [53]: 6.22 nM
- GI50 [54]: 2.63 nM
- TGI [54]: 10.6 nM
- GI50 [55]: 4.26 nM
- TGI [55]: 18.8 nM
- GI50 [56]: 3.82 nM
- TGI [56]: 10.4 nM
- GI50 [57]: 6.99 nM
- TGI [57]: 23.5 nM
